Reference: patent US20030208035A1, “Antifungal and/or antibacterial peptides, preparation methods, compositions containing same and methods of treating mammals and/or plants” (priority 2000, published 2003)

Legend:
Candida albicans = test: anti-Candida albicans growth inhibition test in liquid medium (96-well microplates); type: cell-based; conditions: for Activity C.a. (relative activity in relation to Ard1): fold relative to Ard1; for Activity C.a. (relative activity in relation to heliomycin): fold relative to heliomycin
Protocol: (§1) The anti-Candida albicans and anti-Aspergillus fumigatus activities of the different analogues were assessed using a growth inhibition test in liquid medium made in 96-well microplates. The activity of the purified peptides was tested for different dilutions of each peptide and was compared with those of heliomycin and Ard1 quantified under the same conditions.
The activity test was made directly on yeasts derived from a stock frozen at −80° C., in Sabouraud medium containing 15% glycerol. The density of the yeasts in the stock was adjusted to an optical density of 0.4 OD at 600 nm. After slow thawing at room temperature, the yeast suspension was reduced by dilution to an optic density of 1 mOD at 600 nm in Sabouraud medium, and 90 μl of this dilution were deposited in the wells of microtitration plates in the presence of 10 μl of sample to be tested. Control samples were systematically made in which 10 μl of sample were replaced by 10 μl of sterile water. Media sterility was controlled by incubating 10 μl sterile water in the presence of 90 μl of medium. The samples were incubated at 30° C. for 40 h under slight stirring and the antifungal activity was quantified by measuring optic density at 600 nm.

Aspergillus fumigatus = test: anti-Aspergillus fumigatus growth inhibition test in liquid medium (96-well microplates); type: cell-based; conditions: for Activity A.f. (relative activity in relation to Ard1): fold relative to Ard1; for Activity A.f. (relative activity in relation to heliomycin): fold relative to heliomycin
Protocol: as §1
The spores of Aspergillus fumigatus were derived from a stock frozen at −80° C., containing 10^7 spores/ml in a 25% glycerol solution. After slow thawing at room temperature, the spores were placed in suspension in PDB culture medium (12 g Potato Dextrose Broth medium, per […] water). 10 μl of each sample were deposited in the wells of microtitration plates in the presence of 90 μl PDB culture medium supplemented with tetracycline (100 μg/ml) and cefotaxime (1 μg/ml) containing the spores (at a final concentration of 1000 spores/well). Control cultures were systematically made in which 10 μl of sample were replaced by 10 μl of sterile water. Media sterility was controlled by incubating 10 μl sterile water in the presence of 90 μl of medium. The samples were incubated at 37° C. for 24 h to 48 h in a humid atmosphere, and the antifungal activity was quantified by a score of 0 to 9 taking germination account; the size and morphology of the hyphs were determined under the binocular microscope. […].

[1] = test system: Candida albicans (IHEM 8060 strain); test: Candida albicans infected model, lethal in mice (disseminated candidiasis); type: in vivo; conditions: for activity compared with Ard1 / mice alive on day 7 (out of 10) / time of onset of the 1st death: FIGS. 4-5, 10 mg/kg; for mice alive on day 7 (out of 10): placebo 5 alive; for time of onset of the 1st death: placebo day 2.5; for median mortality, time after infection / morbidity score at day 7: 4 injections; for morbidity score at day 7: 50 = all 10 mice healthy
Protocol: Heliomycin and its analogues were tested for in vivo antifungal activity in a model infected with Candida albicans, lethal in mice. The pathogenic agent Candida albicans (IHEM 8060 strain) was inoculated by intravenous route (i.v.) at a dose of 2.5×10^6 CFU/mouse. the peptides were administered by i.v. route in 4 injections 6 h, 24 h, 48 h and 72 h after infection. Assessment criteria for activity were evaluation of survival and morbidity at 7 days. The morbidity scores, which take into account general state of health (condition of fur, mobility, hydration) were determined for each mouse with values ranging from 0 to 5 and defined below: 0=dead, 1=moribund, 2=very ill, 3=ill, 4=slightly ill, 5=healthy. The sum of the individual scores was calculated for each group, a score of 50 for a group of 10 mice meaning that all the mice were healthy.
Following a standard protocol, groups of 10 Swiss OF1 male mice weighing 12 g were infected via i.v. route with a dose of 2.5×10^6 CFU/mouse. Heliomycin and Ard1 were administered by i.v. route in 4 injections, 6 h, 24 h, 48 h and 72 h after infection. For each peptide, 2 doses were tested: 10 mg/kg and 30 mg/kg. A placebo group was injected with peptide solvent, 0.9% sodium chloride.
In this experiment, inoculation of the mice with 2.5.10^6 CFU/mouse was 50% lethal at day 5 in the group which received placebo treatment. The first deaths occurred on post-infection day 2.5 and median mortality occurred on post-infection day 5. On day 7, 5 mice were alive and the morbidity score 15/50.
In this experiment, inoculation of Swiss OF1 mice weighing 15 g with 3.10^6 CFU of Candida albicans induces 50% mortality on day 4 after infection in the group treated with the placebo. The first deaths occur 2.5 days after infection, and 100% of the mice were dead on day 5.5.
In this experiment, inoculation of the mice with 2.5.10^6 CFU/mouse was 50% lethal at day 5 and 100% at day 8 for mice in the placebo group. The first death occurred 3 days after infection. The morbidity score fell rapidly below 30/50 (25/50 at day 2.5).
The pEM35 peptide was administered at doses of 10 and 30 mg/kg/injection with 3 daily doses for 4 days (1 h, 5 h and 10 h post-infection on day 0; at 8 h, 14 h and 20 h on days 1, 2 and 3), i.e., daily doses totalling 30 and 90 mg/kg.

Molecule | Activity C.a. (relative activity in relation to Ard1) (Candida albicans) | Activity A.f. (relative activity in relation to Ard1) (Aspergillus fumigatus) | Activity C.a. (relative activity in relation to heliomycin) (Candida albicans) | Activity A.f. (relative activity in relation to heliomycin) (Aspergillus fumigatus) | also measured
DKLIGSCVWLAVNYTSNCNAECKRRGYKGGHCGSFLNVNCWCQT [pEM55, peptide derived from Ard1] | 1-2 | 2-7 |  |  | 
DKLIGSCVWGAVNYTSNCNAECKRRGYKGGHCGSFINVNCWCQT [pEM47, peptide derived from Ard1] | 2-4 | 8 |  |  | 
NKLIGSCVWGAVNYTSDCNGECKRRGYKGGHCGSFINVNCWCQT [pEM62, peptide derived from heliomycin] |  |  | 3-6 | 2-4 | 
DKLIGSCVWLAVNYTSNCNAECKRRGYKGGHCGSFANVNCWCET [pEM56, peptide derived from Ard1] | 1-2 | 0.5 |  |  | 
NKLIGSCVWGAVNYTSNCNAECKRRGYKGGHCGSFANVNCWCET [pEM40, peptide derived from Ard1] | 2 | 1 |  |  | 
DKLIGSCVWGAVNYTSDCNGECKRRGYKGGHCGSFINVNCWCET [pEM22, peptide derived from heliomycin] |  |  | 1-2 | 4-8 | 
DKLIGSCVWGAVNYTSDCNGECKRRGYKGGHCGSFANVNCWCQT [pEM21, peptide derived from heliomycin] |  |  | 2 | 10-20 | 
DKLIGSCVWGAVNYTSRCNAECKRRGYKGGHCGSFANVNCWCET [pEM52, peptide derived from Ard1] | 1-2 | 0.5 |  |  | 
DKLIGSCVWGAVNYTSNCNAECKRRGYKGGHCGSFANVNCWCER [pEM30, peptide derived from Ard1] | 4 | 0.5-1 |  |  | activity compared with Ard1 [1]: more active than Ard1; mice alive on day 7 (out of 10) [1]: 7 mice; time of onset of the 1st death [1]: 4 days
NKLIGSCVWGAVNYTSDCNGECKRRGYKGGHCGSFLNVNCWCQT [pEM61, peptide derived from heliomycin] |  |  | 5-10 | 3-6 | 
DKLIGSCVWGAVNYTSDCNGECKRRGYKGGHCGSFANINCWCET [pEM23, peptide derived from heliomycin] |  |  | 1 | 2 | 
Cc1cc(O)c2c3c4c(cc(O)c13)C(C)(C)C(=O)c1c(O)cc(O)c(c1-4)C2=O [Heliomycin, reference compound] |  |  |  |  | median mortality, time after infection ([1]; FIGS. 2-3, 10 mg/kg i.v.): 48 h; morbidity score at day 7 ([1]; FIGS. 2-3, 10 mg/kg i.v.): 0/50; median mortality, time after infection ([1]; FIGS. 2-3, 30 mg/kg i.v.): 60 h; morbidity score at day 7 ([1]; FIGS. 2-3, 30 mg/kg i.v.): 5/50; effect on survival rate ([1]; FIGS. 2-3, 2.5×10^6 CFU/mouse i.v., 10 and 30 mg/kg i.v., 4 injections 6, 24, 48, 72 h, 10 mice, placebo 100% lethal day 4): no significant effect
DKLIGSCVWGAVNYTSNCNAECKRRGYKGGHCGSFANINCWCET [pEM33, peptide derived from Ard1] | 1 | 1 |  |  | 
NKLIGSCVWGAVNYTSDCNGECKRRGYKGGHCGSFANVNCWCET [pEM37, peptide derived from heliomycin] |  |  | 2 |  | 
DKLIGSCVWLAVNYTSNCNAECKRRGYKGGHCGSFLNVNCWCET [pEM54, peptide derived from Ard1] | 1 | 1 |  |  | 
DKLIGSCVWGAVNYTSDCNGECKRRGYKGGHCGSFLNVNCWCET [pEM25, peptide derived from heliomycin] |  |  | 10 | 6 | 
DKLIGSCVWGAVNYTSNCNAECKRRGYKGGHCGSFINVNCWCET [pEM32, peptide derived from Ard1] | 1 | 2 |  |  | 
DKLIGSCVWGAVNYTSNCNAECKRRGYKGGHCGSFINVNCWCER [pEM49, peptide derived from Ard1] | 3 | 1-2 |  |  | 
DKLIGSCVWGAVNYTRNCNAECKRRGYKGGHCGSFANVNCWCET [pEM50, peptide derived from Ard1] | 1-2 | 1 |  |  | 
DKLIGSCVWGAVNYTSDCRGECKRRGYKGGHCGSFANVNCWCET [pEM44, peptide derived from heliomycin] |  |  | 8 | 2 | 
DKLIGSCVWLAVNYTSNCNAECKRRGYKGGHCGSFANVNCWCQT [pEM57, peptide derived from Ard1] | 1 | 8 |  |  | 
DKLIGTCVWGAVNYTSDCNGECKRRGYKGGHCGSFANVNCWCET [pEM38, peptide derived from heliomycin] |  |  | 1 | 1 | 
DKLIGSCVWGAVNYTTDCNGECKRRGYKGGHCGSFANVNCWCET [pEM43, peptide derived from heliomycin] |  |  | 1 | 2 | 
NKLIGSCVWGAVNYTSDCNGECKRRGYKGGHCGSFANVNCWCQT [pEM39, peptide derived from heliomycin] |  |  | 2 | 4-8 | 
DKLIGSCVWGAVNYTRDCNGECKRRGYKGGHCGSFANVNCWCET [pEM42, peptide derived from heliomycin] |  |  | 8 | 1 | 
DKLIGSCVWGAVNYTSDCNGECKRRGYKGGHCGSFANVNCWCER [pEM7, peptide derived from heliomycin] |  |  | 4-8 | 1 | 
DKLIGSCVWGAVNYTSNCNAECKRRGYKGGHCGSFLNINCWCET [pEM34, peptide derived from Ard1] | 4 | 4 |  |  | 
DKLIGSCVWGAVNYTSDCNGECKRRGYKGGHCGSFLNINCWCET [pEM24, peptide derived from heliomycin] |  |  | 4 | 8 | activity compared with Ard1 [1]: more active than Ard1; mice alive on day 7 (out of 10) [1]: 7 mice; time of onset of the 1st death [1]: 3 days
